Reference: PubChem BioAssay (NCI)
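Briefly, cells in 96-well plates were exposed to five compound concentrations for 48 h, and endpoints were estimated by linear interpolation. GI50 marks 50% less growth. TGI is the concentration that stops growth completely.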

Tests used:
Experiment in all cases: growth of human tumour cells (NCI), 48 h; in the data active = GI50 below about 0.43 µM; inactive = the rest
ACHN renal = system: ACHN renal
SNB-75 CNS = system: SNB-75 CNS
RPMI-8226 leukemia = system: RPMI-8226 leukemia
HT29 colon = system: HT29 colon
SF-539 CNS = system: SF-539 CNS
HS 578T breast = system: HS 578T breast
NCI/ADR-RES ovarian = system: NCI/ADR-RES ovarian
SN12C renal = system: SN12C renal
MDA-MB-231 breast = system: MDA-MB-231 breast
SK-OV-3 ovarian = system: SK-OV-3 ovarian
SK-MEL-5 melanoma = system: SK-MEL-5 melanoma
NCI-H23 lung = system: NCI-H23 lung
OVCAR-3 ovarian = system: OVCAR-3 ovarian
HCT-15 colon = system: HCT-15 colon
BT-549 breast = system: BT-549 breast
SR leukemia = system: SR leukemia
COLO 205 colon = system: COLO 205 colon
CAKI-1 renal = system: CAKI-1 renal
UO-31 renal = system: UO-31 renal
LOX IMVI melanoma = system: LOX IMVI melanoma
NCI-H460 lung = system: NCI-H460 lung
SF-295 CNS = system: SF-295 CNS
HCC-2998 colon = system: HCC-2998 colon
NCI-H522 lung = system: NCI-H522 lung
K-562 leukemia = system: K-562 leukemia
MOLT-4 leukemia = system: MOLT-4 leukemia
MALME-3M melanoma = system: MALME-3M melanoma
M14 melanoma = system: M14 melanoma
HL-60(TB) leukemia = system: HL-60(TB) leukemia
786-0 renal = system: 786-0 renal
U251 CNS = system: U251 CNS
HCT-116 colon = system: HCT-116 colon
UACC-257 melanoma = system: UACC-257 melanoma
OVCAR-4 ovarian = system: OVCAR-4 ovarian
PC-3 prostate = system: PC-3 prostate
DU-145 prostate = system: DU-145 prostate
EKVX NSCLC = system: EKVX NSCLC
MCF7 breast = system: MCF7 breast
HOP-62 NSCLC = system: HOP-62 NSCLC
SW-620 colon = system: SW-620 colon
SNB-19 CNS = system: SNB-19 CNS
SK-MEL-2 melanoma = system: SK-MEL-2 melanoma
KM12 colon = system: KM12 colon
UACC-62 melanoma = system: UACC-62 melanoma
SK-MEL-28 melanoma = system: SK-MEL-28 melanoma
RXF 393 renal = system: RXF 393 renal
A498 renal = system: A498 renal
CCRF-CEM leukemia = system: CCRF-CEM leukemia
SF-268 CNS = system: SF-268 CNS
A549 NSCLC = system: A549 NSCLC
IGROV1 ovarian = system: IGROV1 ovarian
MDA-MB-435 = system: MDA-MB-435
OVCAR-8 ovarian = system: OVCAR-8 ovarian
OVCAR-5 ovarian = system: OVCAR-5 ovarian
NCI-H226 lung = system: NCI-H226 lung
TK-10 renal = system: TK-10 renal

O=C(c1ccco1)c1nc2ccc(C(F)(F)F)cc2[n+]([O-])c1C(F)(F)F
93 µM: TGI (RPMI-8226 leukemia)
37.8 µM: TGI (SNB-75 CNS)
48.3 µM: TGI (OVCAR-4 ovarian)
57.4 µM: TGI (SR leukemia)
99.4 µM: TGI (UACC-257 melanoma)
77.2 µM: TGI (MALME-3M melanoma)
80 µM: TGI (RXF 393 renal)
inactive: GI50 (ACHN renal) 54.5 µM | GI50 (SNB-75 CNS) 10.6 µM | GI50 (RPMI-8226 leukemia) 20.3 µM | GI50 (HT29 colon) 29.9 µM | GI50 (SF-539 CNS) 54 µM | GI50 (HS 578T breast) > 100 µM | GI50 (NCI/ADR-RES ovarian) > 100 µM | GI50 (SN12C renal) > 100 µM | GI50 (MDA-MB-231 breast) 25.4 µM | GI50 (SK-OV-3 ovarian) 33.4 µM | GI50 (SK-MEL-5 melanoma) 31.6 µM | GI50 (NCI-H23 lung) 46.7 µM | GI50 (OVCAR-3 ovarian) 98.8 µM | GI50 (HCT-15 colon) > 100 µM | GI50 (BT-549 breast) 39.4 µM | GI50 (SR leukemia) 20.8 µM | GI50 (COLO 205 colon) 77.8 µM | GI50 (CAKI-1 renal) 31 µM | GI50 (UO-31 renal) > 100 µM | GI50 (LOX IMVI melanoma) > 100 µM | GI50 (NCI-H460 lung) 44 µM | GI50 (SF-295 CNS) 53.2 µM | GI50 (HCC-2998 colon) 85.6 µM | GI50 (NCI-H522 lung) > 100 µM | GI50 (K-562 leukemia) 31.3 µM | GI50 (MOLT-4 leukemia) > 100 µM | GI50 (MALME-3M melanoma) 27.9 µM | GI50 (M14 melanoma) > 100 µM | GI50 (HL-60(TB) leukemia) 95.2 µM | GI50 (786-0 renal) > 100 µM | GI50 (U251 CNS) 52.6 µM | GI50 (HCT-116 colon) > 100 µM | GI50 (UACC-257 melanoma) 26.5 µM | GI50 (OVCAR-4 ovarian) 10.8 µM | GI50 (PC-3 prostate) 28.7 µM | GI50 (DU-145 prostate) 42.7 µM | GI50 (EKVX NSCLC) 12.9 µM | GI50 (MCF7 breast) 41.6 µM | GI50 (HOP-62 NSCLC) 33.6 µM | GI50 (SW-620 colon) > 100 µM | GI50 (SNB-19 CNS) 36.4 µM | GI50 (SK-MEL-2 melanoma) 87.7 µM | GI50 (KM12 colon) 67.7 µM | GI50 (UACC-62 melanoma) 43.1 µM | GI50 (SK-MEL-28 melanoma) 23.5 µM | GI50 (RXF 393 renal) 22.2 µM | GI50 (A498 renal) 33.7 µM | GI50 (CCRF-CEM leukemia) > 100 µM | GI50 (SF-268 CNS) 34.3 µM | GI50 (A549 NSCLC) 33.7 µM | GI50 (IGROV1 ovarian) 35.6 µM | GI50 (MDA-MB-435) > 100 µM | GI50 (OVCAR-8 ovarian) 50 µM | GI50 (OVCAR-5 ovarian) > 100 µM | GI50 (NCI-H226 lung) 53.9 µM | GI50 (TK-10 renal) 28.8 µM
> 100 µM: TGI (ACHN renal) | TGI (HT29 colon) | TGI (SF-539 CNS) | TGI (HS 578T breast) | TGI (NCI/ADR-RES ovarian) | TGI (SN12C renal) | TGI (MDA-MB-231 breast) | TGI (SK-OV-3 ovarian) | TGI (SK-MEL-5 melanoma) | TGI (NCI-H23 lung) | TGI (OVCAR-3 ovarian) | TGI (HCT-15 colon) | TGI (BT-549 breast) | TGI (COLO 205 colon) | TGI (CAKI-1 renal) | TGI (UO-31 renal) | TGI (LOX IMVI melanoma) | TGI (NCI-H460 lung) | TGI (SF-295 CNS) | TGI (HCC-2998 colon) | TGI (NCI-H522 lung) | TGI (K-562 leukemia) | TGI (MOLT-4 leukemia) | TGI (M14 melanoma) | TGI (HL-60(TB) leukemia) | TGI (786-0 renal) | TGI (U251 CNS) | TGI (HCT-116 colon) | TGI (PC-3 prostate) | TGI (DU-145 prostate) | TGI (EKVX NSCLC) | TGI (MCF7 breast) | TGI (HOP-62 NSCLC) | TGI (SW-620 colon) | TGI (SNB-19 CNS) | TGI (SK-MEL-2 melanoma) | TGI (KM12 colon) | TGI (UACC-62 melanoma) | TGI (SK-MEL-28 melanoma) | TGI (A498 renal) | TGI (CCRF-CEM leukemia) | TGI (SF-268 CNS) | TGI (A549 NSCLC) | TGI (IGROV1 ovarian) | TGI (MDA-MB-435) | TGI (OVCAR-8 ovarian) | TGI (OVCAR-5 ovarian) | TGI (NCI-H226 lung) | TGI (TK-10 renal)
